Experiments:
[1] = Half life in dog plasma; type: ADME, organism-based, Canis lupus familiaris
[2] = Half life in dog plasma after administration of 0.25 mg/kg iv; type: ADME, organism-based, Canis lupus familiaris; design: dose 0.25 mg/kg, route intravenous
[3] = Volume distribution in rat after administration of 2 mg/kg iv; type: ADME, organism-based; design: dose 2 mg/kg, route intravenous; conditions: in vivo, read-out: Vss
[4] = Oral bioavailability in rat after administration of 10 mg/kg po; type: ADME, organism-based; conditions: in vivo
[5] = Plasma clearance in rat after administration of 2 mg/kg iv; type: ADME, organism-based; design: dose 2 mg/kg, route intravenous
[6] = Plasma clearance in dog after administration of 0.25 mg/kg iv; type: ADME, organism-based, Canis lupus familiaris; design: dose 0.25 mg/kg, route intravenous
[7] = Plasma clearance in dogs; type: ADME, organism-based, Canis lupus familiaris; conditions: dog
[8] = Cmax in rat after administration of 2 mg/kg iv; type: ADME, organism-based; design: dose 2 mg/kg, route intravenous; conditions: in vivo
[9] = Half life in rat plasma after administration of 2 mg/kg iv; type: ADME, organism-based; design: dose 2 mg/kg, route intravenous
[10] = Compound was tested for the inhibition of VEGF-stimulated mitogenesis as determined in human umbilical vein endothelial cells; type: functional, cell-based; conditions: endothelial cell
[11] = molecular target: Vascular endothelial growth factor receptor 2 (Homo sapiens, UniProt P35968); test: Inhibition of VEGF receptor 2 mediated phosphorylation of poly-Glu/Tyr (4:1)
Vascular endothelial growth factor receptor 2, sequence (P35968 whole entry): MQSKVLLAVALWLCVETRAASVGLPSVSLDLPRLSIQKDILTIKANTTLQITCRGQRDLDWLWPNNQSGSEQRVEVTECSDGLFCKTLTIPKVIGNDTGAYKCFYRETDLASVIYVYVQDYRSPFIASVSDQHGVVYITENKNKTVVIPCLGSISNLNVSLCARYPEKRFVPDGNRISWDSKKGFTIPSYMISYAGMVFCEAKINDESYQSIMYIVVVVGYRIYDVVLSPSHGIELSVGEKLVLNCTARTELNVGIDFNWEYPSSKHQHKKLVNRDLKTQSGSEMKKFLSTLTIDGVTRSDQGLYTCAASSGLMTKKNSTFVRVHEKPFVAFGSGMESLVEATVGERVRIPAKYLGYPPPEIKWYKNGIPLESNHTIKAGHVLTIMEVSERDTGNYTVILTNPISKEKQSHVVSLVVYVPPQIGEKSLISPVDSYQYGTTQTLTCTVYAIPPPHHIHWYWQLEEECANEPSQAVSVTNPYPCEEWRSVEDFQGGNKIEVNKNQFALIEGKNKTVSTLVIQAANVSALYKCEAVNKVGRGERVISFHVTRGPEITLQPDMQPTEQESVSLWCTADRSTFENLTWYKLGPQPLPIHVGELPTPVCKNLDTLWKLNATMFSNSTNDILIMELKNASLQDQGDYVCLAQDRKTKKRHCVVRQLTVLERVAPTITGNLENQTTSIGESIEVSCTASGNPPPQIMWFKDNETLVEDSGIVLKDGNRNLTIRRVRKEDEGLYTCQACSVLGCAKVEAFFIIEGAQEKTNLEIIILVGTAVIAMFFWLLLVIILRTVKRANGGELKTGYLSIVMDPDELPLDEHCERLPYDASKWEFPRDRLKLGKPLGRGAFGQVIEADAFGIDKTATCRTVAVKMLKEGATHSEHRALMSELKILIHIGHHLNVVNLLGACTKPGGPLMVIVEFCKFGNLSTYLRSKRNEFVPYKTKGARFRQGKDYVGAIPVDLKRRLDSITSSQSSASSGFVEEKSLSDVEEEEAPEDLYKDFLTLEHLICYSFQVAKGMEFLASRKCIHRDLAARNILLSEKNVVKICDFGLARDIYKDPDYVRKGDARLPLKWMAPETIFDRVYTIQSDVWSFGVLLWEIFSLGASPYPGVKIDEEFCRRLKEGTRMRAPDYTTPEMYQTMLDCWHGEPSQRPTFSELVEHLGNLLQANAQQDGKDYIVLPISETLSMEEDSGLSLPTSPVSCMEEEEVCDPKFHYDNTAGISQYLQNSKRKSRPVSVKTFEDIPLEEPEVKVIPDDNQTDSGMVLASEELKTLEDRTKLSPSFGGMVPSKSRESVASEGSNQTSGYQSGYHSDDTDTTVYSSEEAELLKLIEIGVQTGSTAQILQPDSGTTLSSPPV

[12] = molecular target: T1, Voltage-gated inwardly rectifying potassium channel KCNH2 (Homo sapiens, UniProt Q12809); test: Effect on prolongation of the heart rate-corrected QT interval; type: functional
T1 sequence (Q12809 whole entry): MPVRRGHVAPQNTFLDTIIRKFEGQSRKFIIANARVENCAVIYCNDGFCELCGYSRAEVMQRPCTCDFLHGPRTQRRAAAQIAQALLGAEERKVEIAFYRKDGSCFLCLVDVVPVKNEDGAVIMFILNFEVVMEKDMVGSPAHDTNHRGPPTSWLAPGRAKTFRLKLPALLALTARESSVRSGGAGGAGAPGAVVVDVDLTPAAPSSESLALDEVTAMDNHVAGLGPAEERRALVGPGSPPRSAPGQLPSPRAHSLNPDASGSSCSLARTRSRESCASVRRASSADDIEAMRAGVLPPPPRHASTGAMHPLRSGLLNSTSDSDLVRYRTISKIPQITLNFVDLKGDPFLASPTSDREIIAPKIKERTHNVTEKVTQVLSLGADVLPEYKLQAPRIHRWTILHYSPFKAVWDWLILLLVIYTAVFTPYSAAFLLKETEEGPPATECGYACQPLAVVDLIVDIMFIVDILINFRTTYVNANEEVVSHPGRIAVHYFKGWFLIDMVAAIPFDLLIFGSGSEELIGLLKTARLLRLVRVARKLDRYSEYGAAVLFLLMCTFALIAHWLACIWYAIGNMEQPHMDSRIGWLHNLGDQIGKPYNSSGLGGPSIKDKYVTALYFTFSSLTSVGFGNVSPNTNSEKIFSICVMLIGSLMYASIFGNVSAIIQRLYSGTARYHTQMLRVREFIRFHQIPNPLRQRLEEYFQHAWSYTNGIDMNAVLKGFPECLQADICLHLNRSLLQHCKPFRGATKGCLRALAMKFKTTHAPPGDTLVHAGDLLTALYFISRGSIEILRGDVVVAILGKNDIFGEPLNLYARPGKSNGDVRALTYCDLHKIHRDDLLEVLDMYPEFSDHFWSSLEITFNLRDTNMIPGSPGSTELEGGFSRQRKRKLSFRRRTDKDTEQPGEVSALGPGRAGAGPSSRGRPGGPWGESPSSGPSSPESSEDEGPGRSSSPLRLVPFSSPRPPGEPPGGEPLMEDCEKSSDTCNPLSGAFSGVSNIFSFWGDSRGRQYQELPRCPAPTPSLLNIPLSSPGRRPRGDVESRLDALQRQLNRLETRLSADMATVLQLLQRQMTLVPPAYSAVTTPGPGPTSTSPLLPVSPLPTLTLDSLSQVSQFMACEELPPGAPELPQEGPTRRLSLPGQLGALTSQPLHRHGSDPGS

[13] = molecular target: T1, Voltage-gated inwardly rectifying potassium channel KCNH2; test: Affinity for HERG voltage-gated potassium channel subunit Kv11.1
[14] = Partition coefficient (logP); type: physicochemical; conditions: octanol/water
[15] = Half life in monkey plasma after administration of 1 mg/kg iv; type: ADME, organism-based; design: dose 1 mg/kg, route intravenous; conditions: cercopithecidae
[16] = Oral bioavailability in monkey (dose 1 mg/kg p.o.); type: ADME, organism-based; conditions: cercopithecidae, in vivo
[17] = Cmax in monkey after administration of 1 mg/kg iv; type: ADME, organism-based; design: dose 1 mg/kg, route intravenous; conditions: cercopithecidae, in vivo
[18] = Volume distribution in monkey after administration of 1 mg/kg iv; type: ADME, organism-based; design: dose 1 mg/kg, route intravenous; conditions: cercopithecidae, in vivo, read-out: Vss
[19] = Half life in dog plasma after administration of 1 mg/kg iv; type: ADME, organism-based, Canis lupus familiaris; design: dose 1 mg/kg, route intravenous
[20] = Plasma clearance in monkey after administration of 1 mg/kg iv; type: ADME, organism-based; design: dose 1 mg/kg, route intravenous; conditions: cercopithecidae
[21] = Oral bioavailability in rat (dose 10 mg/kg p.o.); type: ADME, organism-based; conditions: in vivo
[22] = Oral bioavailability in dog (dose 1 mg/kg p.o.); type: ADME, organism-based, Canis lupus familiaris; conditions: in vivo
[23] = Cmax in dog after administration of 1 mg/kg iv; type: ADME, organism-based, Canis lupus familiaris; design: dose 1 mg/kg, route intravenous; conditions: in vivo
[24] = Volume distribution in dog after administration of 1 mg/kg iv; type: ADME, organism-based, Canis lupus familiaris; design: dose 1 mg/kg, route intravenous; conditions: in vivo, read-out: Vss
[25] = Plasma clearance in dog after administration of 1 mg/kg iv; type: ADME, organism-based, Canis lupus familiaris; design: dose 1 mg/kg, route intravenous

half-life [1] [h] | clearance [7] [mL/min/kg] | IC50 [10] [nM] | IC50 [11] [nM] | logP [14] | Structure (SMILES) | IP [13] [nM] | other results
< 1 | > 50 | 8 | 7 | 3.1 | COCCN(C)CCOc1ccc2[nH]c(-c3cc4ccccc4nc3O)cc2c1 | 1950 | half-life [2]: < 1 h; Vd [3]: 5 L/kg; bioavailability [4]: 20%; clearance [5]: 56 mL/min/kg; clearance [6]: > 50 mL/min/kg; Cmax [8]: 470 nM; half-life [9]: 1.4 h; EC10 [12]: 1900 nM
3.4 | 11 | 27 | 16 |  | NC1CCN(S(=O)(=O)c2ccc3[nH]c(-c4cc5ccccc5nc4O)cc3c2)C1 (stereo not given) | 2650 | 
2.4 | 19 | 4 | 5 | 2.6 | CN1CCN(C(=O)c2ccc3[nH]c(-c4cc5ccccc5nc4O)cc3c2)CC1 | 10800 | half-life [15]: 2.8 h; bioavailability [16]: 46%; Cmax [17]: 1250 nM; Vd [18]: 0.9 L/kg; half-life [19]: 2.4 h; clearance [20]: 3.4 mL/min/kg; Vd [3]: 0.7 L/kg; bioavailability [21]: 31%; bioavailability [22]: 15%; clearance [5]: 3.8 mL/min/kg; Cmax [23]: 160 nM; Vd [24]: 2.9 L/kg; Cmax [8]: 5790 nM; half-life [9]: 2.3 h; clearance [25]: 19 mL/min/kg
3.2 | 7.7 | 41 | 8 | 0.9 | O=C(O)C1CCN(CCCOc2ccc3[nH]c(-c4cc5ccccc5nc4O)cc3c2)CC1 | 3050 | EC10 [12]: 5200 nM
9.5 | 0.4 | 97 | 14 |  | O=c1[nH]c2ccccc2cc1-c1cc2cc(S(=O)(=O)NC3CCNC3)ccc2[nH]1 (stereo not given) | 2835 | 
2.2 | 7.8 | 4 | 4 | 3.2 | CC(=O)N1CCN(CCOc2ccc3[nH]c(-c4cc5ccccc5nc4O)cc3c2)CC1 | 520 | 
1.7 | 38 | 53 | 6 |  | O=C(NC1CCNC1)c1ccc2[nH]c(-c3cc4ccccc4nc3O)cc2c1 (stereo not given) | 13700 | 
4.2 | 27 | 4 | 5 | 1.7 | O=C(c1ccc2[nH]c(-c3cc4ccccc4nc3O)cc2c1)N1CCNCC1 | > 10000 | 
1.3 | > 50 | 17 | 4 | 3.7 | Oc1nc2ccccc2cc1-c1cc2cc(OCCN3CCCCC3)ccc2[nH]1 | 980 | EC10 [12]: 640 nM
12.7 | 3.5 | 30 | 11 | 2.3 | O=c1[nH]c2ccccc2cc1-c1cc2cc(S(=O)(=O)N3CCNCC3)ccc2[nH]1 | 2450 | 
6.4 | 0.5 | 31 | 10 | 3 | CN1CCN(S(=O)(=O)c2ccc3[nH]c(-c4cc5ccccc5nc4O)cc3c2)CC1 | 3440 | half-life [15]: 3.4 h; bioavailability [16]: 40%; Cmax [17]: 630 nM; Vd [18]: 2.1 L/kg; half-life [19]: 6.4 h; clearance [20]: 12 mL/min/kg; Vd [3]: 0.9 L/kg; bioavailability [21]: 54%; bioavailability [22]: 63%; clearance [5]: 29 mL/min/kg; Cmax [23]: 5200 nM; Vd [24]: 0.3 L/kg; Cmax [8]: 4800 nM; half-life [9]: 1.1 h; clearance [25]: 0.5 mL/min/kg
1.1 | 26 | 4 | 5 |  | NC1CCN(C(=O)c2ccc3[nH]c(-c4cc5ccccc5nc4O)cc3c2)C1 (stereo not given) | > 10000 | 
 |  | 1140 |  |  | O=c1[nH]c2ccccc2cc1-c1nc2ccccc2[nH]1 |  | 
 |  | 184 |  |  | O=c1[nH]c2ccccc2cc1-c1cc2ccccc2[nH]1 |  | 
